Legend:
Aspergillus niger = test: Agar disc diffusion, strain H; format: cell-based; parameters: (inhibition %): concentration or dose not given beside the values; conditions: for diameter of the clear zone inhibition: control = 6 mm
Protocol: (§1) In-vitro antimicrobial properties were evaluated for all samples by the agar disc diffusion method towards different fungal and bacterial strains. Additionally, the reported inhibition zone values were comparatively analyzed with the standard antifungal drugs ketoconazole and amphotericin B as well as the standard antibiotic medications streptomycin and amikacin.
(§2) The current research has a curious focus on the in vitro antimicrobial properties of biological systems because these studies are crucial for developing effective antibacterial and antifungal medications. […] It can also be spelled out based on the chelation theory proposed by Overtone and Tweedy. Chelation theory points out that the partial exchanging of the positive charge of the metal center with donor moieties, and overlap of the ligand orbitals will reduce the greater degree of the metal ion's polarity, which ultimately rises the delocalization of π and d electrons over the full chelated ring system. By raising the size of the metal ion due to the retarding of polarization, chelation may also enhance the complexes' lipophilic characteristics, which further stimulate the lipid membrane permeability and break down the bacteria' enzymes responsible for cell wall formation, therefore slowing down the regular cell processes. By preventing the production of cell walls/proteins/DNA, including by obstructing folate metabolism and the cytoplasmic membrane, antimicrobial drugs frequently either fully eliminate microbes or only prevent their cell growth. Additionally, the samples' mode of action may be employed in disrupting the cell's respiration process by forming an H-bond during the morpholine-fused iminic group coordinated with the active metal center of its components, inhibiting proliferation of the cell. […] The difference in the antimicrobial efficacy of some of the compounds towards various microorganisms influences on the impermeability of the cells of the germs or the diversity of ribosomes of the microbes. The % of the inhibition of all substances is estimated from (45) (Table 9).
(§3) (A, B, C, D, and E are represented as gram negative bacteria species Escherichia coli, Salmonella enteric serovar typhi, Salmonella enteric serovar typhi, Pseudomonas aeruginosa, and Shigella flexneri, respectively. F & G are denoted as gram positive bacteria species Staphylococcus aureus and Bacillus cereus. H, I, and J are represented as fungal strains Aspergillus niger, Candida albicans, and Mucor indicus. Standard drugs for bacterial strains: Amikacin & Streptomycin Standard drugs for fungal strains: Ketoconazole and Amphotericin B. [Control (DMSO) = 6 mm].(44) Inhibition %=T–C/T×100, where T and C are represented as the diameter of microbial growth of the sample plates and the control plate (6 mm), respectively. Error limits ±2.5–5.0% (P ≤ 0.05).

[1] = test system: Salmonella enteric serovar typhi; test: Agar disc diffusion, strain C; format: cell-based; conditions: for diameter of the clear zone inhibition: control = 6 mm
Protocol: as §1, §2, §3

BSA = BSA (Bos taurus, UniProt P02769); test: FRET computation, donor (BSA) - acceptor (compound); format: binding, bovine; parameters: kET (rate of energy transfer): unit not given here; conditions: for J, spectral overlap integral: BSA donor, compound acceptor; for B (brightness of complex-BSA system): free BSA = 6,573.60
[2] = Superoxide scavenging assay; format: biochemical; conditions: for % Inhibition superoxide: 590 nm
Protocol: All samples were evaluated for their scavenging ability with the help of UV-visible spectrophotometer at different concentrations of 40, 80, 120, 160, 200, and 240 μM [6, 28]. While performing the antioxidant properties for the DPPH, hydroxyl, superoxide, and nitric oxide radical scavenging, the absorbance at 517, 230, 590, and 546 nm, respectively, was closely observed. In addition, the observed IC50 values of all samples were compared with ascorbic acid.
A vital enzyme catalyst in the body's defence against free radicals, superoxide dismutase (SOD) quickly and efficiently reduces toxicity and cellular damage by exchanging superoxide with water (or) harmless molecules. The % of inhibition for all substances was analyzed at 590 nm. The outcomes were obtained in the subsequent order: (ascorbic acid) 84.85 > (1a) 67.17 > (2a) 58.18 > (HL) 50.42.

CT-DNA = test: DNA thermal denaturation (biothermodynamic properties); format: binding, calf thymus; conditions: for Tm (K) / Tm °C of DNA-compound adduct: 260 nm, [DNA]/[Complex] = 1; for Tm °C of DNA-compound adduct: CT-DNA alone 68°C; for ΔH°: Van't Hoff equation; for ΔTm °C: versus free DNA (68°C); for ΔG°: −R.Tm.lnKm
Protocol: Thermal denaturation characteristics were executed by a UV-visible spectrophotometer in a temperature-controlled sample container in both the presence and absence of the substances. In a Tris-HCl buffer solution with a pH of 7.4, all substances were incubated with CT-DNA in a 1 : 1 ratio. Temperature increases of two degrees Celsius per minute were applied to test substances in the range of 25 to 100°C, and the changes in absorbance at 260 nm were carefully scrutinized.
DNA denaturation contributes to the root cause of several chronic diseases, hereditary disorders, and a reduction in the ability of DNA repair to work properly. The biothermodynamic properties were further supported to determine the ability of stabilization of the double-standard DNA, and it offers details on the structural alterations, the degree of the DNA-compound system, the external binding-mediated neutralization of phosphate charges on DNA, and the stacking interactions, all of which work together to raise the DNA's melting point. […] The Van't Hoff (9) and Gibbs Helmholtz equations (10) were supportive in evaluating the biothermodynamic parameters, which are enclosed in Table 2. […] The influencing factors between test compounds and DNA mostly depend on the type of interaction mode. Because of the driving forces, H-bonds, weak Van der Waals forces, and electrostatic modes of binding all occur while the enthalpy is favourable. Hydrophobic forces induce binding while entropy is favourable; on the other hand, the loss of structural degrees of freedom leads to undesirable entropic changes. As per Ross and colleagues, the findings for ΔH° and ΔS° can alternatively be derived in the following favourable sequence. If ΔH° > 0 and ΔS° > 0, this attributes intercalation due to hydrophobic forces of attraction. If ∆H° < 0 and ΔS° < 0, this involves weak Van der Waals forces of attraction and H-bonding interactions. On the other hand, if ΔH° < 0 (or), ΔH°≈0 and ∆S° > 0, this indicates the electrostatic mode of binding possible between DNA and compounds [28, 68]. […] Furthermore, it is widely acknowledged that the hydration and generation of the compound-deoxyribonucleic acid adduct system via the counter ion liberating mechanism are highly dependent on the hydrophobic forces of attraction.

[O-]c1ccccc1N=Cc1ccc(N2CCOCC2)cc1.[O-]c1ccccc1N=Cc1ccc(N2CCOCC2)cc1.[Zn+2].c1ccc(-c2ccccn2)nc1 [(2a), [Zn(L)2(bpy)]]
(inhibition %) (Aspergillus niger): 33% | diameter of the clear zone inhibition (Aspergillus niger): 09 mm | (inhibition %) [1]: 33% | diameter of the clear zone inhibition [1]: 09 mm | E (efficiency of energy transfer) (BSA): 0.5615 | R0 (Förster radius) (BSA): 2.2770 nm | kET (rate of energy transfer) (BSA): 10.4206 | r (donor-acceptor separation) (BSA): 2.1851 nm | J, spectral overlap integral (BSA): 0.5425 × 10^−14 (LM^−1·cm^3) | B (brightness of complex-BSA system) (BSA): 4642.53 M⁻¹ cm⁻¹ | % Inhibition superoxide ([2]; 40 µM): 06.32% | % Inhibition superoxide ([2]; 80 µM): 12.67% | % Inhibition superoxide ([2]; 120 µM): 24.14% | % Inhibition superoxide ([2]; 160 µM): 40.20% | % Inhibition superoxide ([2]; 200 µM): 51.92% | % Inhibition superoxide ([2]; 240 µM): 58.18% | ΔS° (CT-DNA): –8.4501 cal mol^–1 | Tm (K) (CT-DNA): 351 K | Tm °C of DNA-compound adduct (CT-DNA): 78 °C | Binding constant Kr at 298 K (CT-DNA): 1.8287 × 10^4 M^–1 | ΔH° (CT-DNA): –8.3292 kcal mol^–1 | ΔTm °C (CT-DNA): 10 °C | ΔG° (CT-DNA): –5.3632 kcal mol^–1

Oc1ccccc1N=Cc1ccc(N2CCOCC2)cc1 [(HL), 2-(4-morpholinobenzylideneamino)phenol]
(inhibition %) (Aspergillus niger): 40% | diameter of the clear zone inhibition (Aspergillus niger): 10 mm | (inhibition %) [1]: 45% | diameter of the clear zone inhibition [1]: 11 mm | E (efficiency of energy transfer) (BSA): 0.3462 | R0 (Förster radius) (BSA): 2.4400 nm | kET (rate of energy transfer) (BSA): 5.2957 | r (donor-acceptor separation) (BSA): 2.7127 nm | J, spectral overlap integral (BSA): 0.8215 × 10^−14 (LM^−1·cm^3) | B (brightness of complex-BSA system) (BSA): 5339.79 M⁻¹ cm⁻¹ | % Inhibition superoxide ([2]; 40 µM): 05.23% | % Inhibition superoxide ([2]; 80 µM): 10.74% | % Inhibition superoxide ([2]; 120 µM): 18.85% | % Inhibition superoxide ([2]; 160 µM): 33.55% | % Inhibition superoxide ([2]; 200 µM): 40.91% | % Inhibition superoxide ([2]; 240 µM): 50.42% | ΔS° (CT-DNA): –13.7851 cal mol^–1 | Tm (K) (CT-DNA): 347 K | Tm °C of DNA-compound adduct (CT-DNA): 74 °C | Binding constant Kr at 298 K (CT-DNA): 1.5169 × 10^4 M^–1 | ΔH° (CT-DNA): –9.8083 kcal mol^–1 | ΔTm °C (CT-DNA): 6 °C | ΔG° (CT-DNA): –5.0249 kcal mol^–1

[Cu+2].[O-]c1ccccc1N=Cc1ccc(N2CCOCC2)cc1.[O-]c1ccccc1N=Cc1ccc(N2CCOCC2)cc1.c1ccc(-c2ccccn2)nc1 [(1a), [Cu(L)2(bpy)]]
(inhibition %) (Aspergillus niger): 45% | diameter of the clear zone inhibition (Aspergillus niger): 11 mm | (inhibition %) [1]: 50% | diameter of the clear zone inhibition [1]: 12 mm | E (efficiency of energy transfer) (BSA): 0.5769 | R0 (Förster radius) (BSA): 2.4090 nm | kET (rate of energy transfer) (BSA): 13.6340 | r (donor-acceptor separation) (BSA): 2.2877 nm | J, spectral overlap integral (BSA): 0.7607 × 10^−14 (LM^−1·cm^3) | B (brightness of complex-BSA system) (BSA): 5187.78 M⁻¹ cm⁻¹ | IC50 [2]: 200 µM | % Inhibition superoxide ([2]; 40 µM): 08.32% | % Inhibition superoxide ([2]; 80 µM): 16.45% | % Inhibition superoxide ([2]; 120 µM): 31.86% | % Inhibition superoxide ([2]; 160 µM): 47.69% | % Inhibition superoxide ([2]; 200 µM): 60.03% | % Inhibition superoxide ([2]; 240 µM): 67.17% | ΔS° (CT-DNA): –6.9577 cal mol^–1 | Tm (K) (CT-DNA): 353 K | Tm °C of DNA-compound adduct (CT-DNA): 80 °C | Binding constant Kr at 298 K (CT-DNA): 1.9000 × 10^4 M^–1 | ΔH° (CT-DNA): –7.9071 kcal mol^–1 | ΔTm °C (CT-DNA): 12 °C | ΔG° (CT-DNA): –5.4511 kcal mol^–1
